Results on 5 compounds are retold here after ChEMBL document CHEMBL1152427, “Antimicrobial natural products as beta-ketoacyl-acyl carrier protein synthase III inhibitors” (Bioorg Med Chem, 2009).

One data set deals with Escherichia coli. Kind of data set: Antibacterial activity against Escherichia coli after 20 hrs by twofold serial broth dilution method. It is filed as functional.
In data set [1] the test system is Staphylococcus aureus. Kind of data set: Antibacterial activity against Staphylococcus aureus KCTC 1621 after 20 hrs by twofold serial broth dilution method. It is filed as functional. Particulars: KCTC 1621, 20 h. In general terms: Broth dilution looks for growth in wells or tubes with falling amounts of substance.
In data set [2] the test system is Enterococcus faecalis. Kind of data set: Antibacterial activity against Enterococcus faecalis KCTC 2011 after 20 hrs by twofold serial broth dilution method. The data set is classed as functional. Particulars: KCTC 2011, 20 h.
Data set [3] concerns Staphylococcus aureus. Kind of data set: Antibacterial activity against methicillin-resistant Staphylococcus aureus CCARM 3114 after 20 hrs by twofold serial broth dilution method. Particulars: CCARM 3114, 20 h. It is filed as functional.
Data set [4] deals with Enterococcus faecalis. Kind of data set: Antibacterial activity against vancomycin-resistant Enterococcus faecalis clinical isolates after 20 hrs by twofold serial broth dilution method. It is filed as functional.
Data set [5] has as its target T1, 3-oxoacyl-[acyl-carrier-protein] synthase 3 (Escherichia coli) (UniProt C3TDZ2).
T1 sequence (whole entry): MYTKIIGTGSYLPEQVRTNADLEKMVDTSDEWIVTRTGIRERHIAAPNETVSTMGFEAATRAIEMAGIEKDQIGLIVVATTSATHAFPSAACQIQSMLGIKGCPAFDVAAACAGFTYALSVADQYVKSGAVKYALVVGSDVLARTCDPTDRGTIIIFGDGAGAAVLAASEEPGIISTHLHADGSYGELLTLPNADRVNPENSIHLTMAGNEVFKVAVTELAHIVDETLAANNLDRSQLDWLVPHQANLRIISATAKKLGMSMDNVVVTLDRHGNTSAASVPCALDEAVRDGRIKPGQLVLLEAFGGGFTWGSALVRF
Kind of data set: Binding affinity to Escherichia coli KAS3 expressed in Escherichia coli BL21 (DE3) by NMR analysis.

Data set [6] is described as follows: Cytotoxicity against human HaCaT cells assessed as cell survival at 16 uM after 24 hrs by MTT assay. It is filed as cell-based. Particulars: read-out: Survival.
Data set [7] can be described thus: Solubility of the compound. The data set is classed as physicochemical.
For data set [8], the system named is HaCaT. Kind of data set: Cytotoxicity against human HaCaT cells assessed as cell morphology at 100 uM after 24 hrs by phase contrast microscopy. The data set is classed as cell-based.
Data set [9] deals with HaCaT. Kind of data set: Cytotoxicity against human HaCaT cells assessed as cell survival at 100 uM after 24 hrs by MTT assay. It is filed as cell-based. (Formazan colour is commonly taken as a measure of viable cells.)

Molecules are shown by their SMILES. ≈ marks a conversion by molar mass, not a printed value.

For `O=c1c(O)c(-c2ccc(O)cc2)oc2ccc(O)cc12`, the MIC against Escherichia coli, with Staphylococcus aureus [1], in the data set on Enterococcus faecalis [2], against Staphylococcus aureus [3] and in the data set on Enterococcus faecalis [4] was above 1020 µM throughout. In data set [5], this compound registered a K of 6.22 ×10⁶ /M.

On to `COc1ccc(-c2coc3cc(O[C@@H]4O[C@H](CO)[C@@H](O)[C@@H](O)[C@@H]4O)cc(O)c3c2=O)cc1`, for which the minimal inhibitory concentration (MIC) in the data set with Escherichia coli, with Staphylococcus aureus [1], in the data set with Enterococcus faecalis [2], in the data set on Staphylococcus aureus [3] and with Enterococcus faecalis [4] was above 1020 µM throughout. Further, the K in data set [5] was found to be 5.6 ×10⁶ /M.

`C=C/C(C)=C/[C@@]1(C)SC(=O)C(C)=C1O` [THIOLACTOMYCIN]: the minimal inhibitory concentration (MIC) (as a rule, the smallest concentration in the dilution series that meets the test's criterion for growth inhibition) in the data set with Escherichia coli came to 128 µM (≈ 26.9 µg/mL); with Staphylococcus aureus [1], 256 µM (≈ 53.8 µg/mL); in the data set on Enterococcus faecalis [2], 256 µM (≈ 53.8 µg/mL); in the data set on Staphylococcus aureus [3], 128 µM (≈ 26.9 µg/mL); in the data set with Enterococcus faecalis [4], 128 µM (≈ 26.9 µg/mL). Besides, the K in data set [5] stood at 1.18 ×10⁴ /M.

As for `O=c1c(O)c(-c2ccccc2)oc2ccc(O)cc12`, the minimal inhibitory concentration (MIC) against Escherichia coli was above 1020 µM; in the data set with Staphylococcus aureus [1], 16 µM (≈ 4.07 µg/mL); in the data set on Enterococcus faecalis [2], 128 µM (≈ 32.5 µg/mL); against Staphylococcus aureus [3], 16 µM (≈ 4.07 µg/mL); with Enterococcus faecalis [4] it was 256 µM (≈ 65.1 µg/mL). Further, in [6], the viability at 24 h, 16 µM amounted to 90%. Moreover, the solubility result in data set [7] is recorded as “Insoluble”. Moreover, in data set [5], the K stood at 1.32 ×10⁴ /M.

Take `O=C(CCc1ccc(O)cc1)c1c(O)cc(O)cc1O` [PHLORETIN]: the MIC amounted to 128 µM (≈ 35.1 µg/mL) against Escherichia coli; 32 µM (≈ 8.78 µg/mL) against Staphylococcus aureus [1]; 128 µM (≈ 35.1 µg/mL) in the data set on Enterococcus faecalis [2]; 16 µM (≈ 4.39 µg/mL) against Staphylococcus aureus [3]; 128 µM (≈ 35.1 µg/mL) with Enterococcus faecalis [4]. Also, the Activity result in the data set on HaCaT [8] and in the data set with HaCaT [9] was “Not Active” in each case. For the same compound, the K in [5] was found to be 2.38 ×10⁷ /M.
